# Assays:
# HL-60 cells = assay: Migration of HL-60 cell line toward THP-1 culture supernatant (transmigration assay); type: cell-based, human; settings: supernatant of THP-1 cells treated with sample 100 μg/ml 1 h, then Gemcitabine 2 μg/ml 24 h
# Method: In RPMI (Hyclone, Thermo Scientific) medium to which 10% Fetal Bovine Serum was added, THP-1 cells, a human macrophage family, were subcultured at a concentration of 1×10^5 cells/ml, and culture was conducted in a 5% CO2 humidified incubator at 37° C. In order to prepare the THP-1 cell culture solution to be treated in the lower well during the transmigration assay, first, the cultured THP-1 cells were inoculated into a 12 well plate by 1×10^6 cells/ml and stabilized for 30 minutes. Then, the culture solution was treated with a glycerol derivative compounds of the type shown in Table 7 below for 1 hour and then was treated with Gemcitabine (2 μg/ml) of a cell stimulator, and subsequent further incubation was conducted for 24 hours. Thereafter 1.5 ml of the culture supernatant was collected for each well and centrifuged (at 3000 rpm, 5 minutes) to recover the supernatant. The CXCL8 (IL-8) level in the recovered supernatant was measured according to the manual provided by Cultrex 96 well Laminin Cell Invasion assay. The day before Transmigration assay was carried out, a 1× Lamin I solution was treated in the upper Invasion Chamber and coated. Thereafter, in RPMI (Hyclone, Thermo Scientific) medium to which 10% Fetal Bovine Serum was added, the cultured HL-60 cells were despensed of 5×10^4 cells/chamber, and 150 μl of the THP-1 culture supernatant prepared in advance was added to the lower chamber. Thereafter the upper chamber was removed, and the cells were attached to the bottom of the lower chamber by a centrifuge, and then the supernatant was removed. Cell dissociation/Calcein-AM solution was added and reacted for 1 hour. Then, the value obtained using a fluorescence spectroscopy was calculated by converting the number of cells.
# STAT3 = assay: IL-6-induced STAT3 activity, SEAP expression in HEK-Blue IL-6 cells; type: cell-based; settings: HEK-Blue IL-6 cells; for STAT3 activity_SEAP expression(%) (average ± deviation): sample 100 μg/ml 1 h, then IL-6 5 ng/ml 24 h, negative control = 100; for decrease of STAT3 activity compared to the IL-6 cytokine-treated group: 100 μg/ml
# Method: HEK-Blue™ IL-6 cells were used to confirm STAT3 activity by STAT3-induced SEAP (secreted embryonic alkaline phosphatase) expression. In DMEM (Hyclone, Thermo Scientific) medium to which 10% Fetal Bovine Serum was added, HEK-Blue™ IL-6 cells were cultured at a concentration of 1×10^5 cells/ml, and maintained in a 5% CO2 humidified incubator at 37° C. The cultured HEK-Blue™ IL-6 cells were inoculated by 1×10^5 cells/ml. Then, the culture solution was treated with a glycerol derivative compounds of the type shown in Table 4 below for 1 hour and then IL-6 (5 ng/ml) was further incubated for 24 hours for STAT3 activity. Thereafter, the culture supernatant was collected for each well and centrifuged (at 3000 rpm, 5 minutes) to recover the supernatant. The SEAP expression level in the recovered supernatant was mixed with Quanti blue reagent and the supernatant at a ratio of 1:10 and left at 37° C. for about 30 minutes. Then, the SEAP concentration was confirmed at 650 nm wavelength using a spectrophotometer, and the results (STAT3 activity inhibitory ability) thereof are shown in Table 4 and FIG. 3 below.
# IL-4 = assay: PKC activator-induced IL-4 secretion reduction in EL-4 cells (ELISA); type: cell-based, mouse; settings: sample 100 μg/ml 2 h, then PKC activator 18 h, Table 11
# Method: In DMEM (Dulbecco Modified Eagle Medium, Hyclone, Thermo Scientific) medium to which 10% Fetal Bovine Serum was added, EL-4 cells, a mouse lymphoma family, were subcultured at a concentration of 1×10^5 cells/ml, and culture was conducted in a 5% CO2 humidified incubator at 37° C. The cultured EL-4 cells were inoculated into a 48 well plate by 5×10^4 cells/ml and stabilized for 30 hours. Then, the culture solution was treated with a glycerol derivative compounds of the type shown in Table 11 and 12 below for 2 hours. Thereafter, it were treated with 0.5 μg/ml of PKC activator (p10, some kind of PMA) of a cell stimulator, and subsequent further incubation were conducted for 18 hours. Thereafter 0.5 ml of the culture supernatant was collected for each well and centrifuged (at 3000 rpm, 5 minutes) to recover the supernatant. The IL-4 level in the recovered supernatant was measured according to the manual provided by the Mouse IL-4 ELISA set (BD Biosciences). The day before ELISA was carried out, the IL-4 capture antibody was diluted in phosphate buffered saline, coated on a microwell, and then stored at 4° C. overnight. Each well was washed three times with a buffer solution and then blocked with 2% Bovine Serum Albumin (BSA) for 1 hour at room temperature. After washing with buffer solution three times, 100 μl of sample was dispensed into each well and left at room temperature for 2 hours. Detection antibody which was washed 3 times with washing buffer solution and diluted was dispensed into each well and allowed to react at room temperature for 1 hour and left at room temperature for 1 hour. Thereafter, the secondary HRP conjugated antibody was reacted at room temperature for 30 minutes, washed three times with buffer solution, and treated with 50 μl of stop solution for each well, and then the optical density was measured at 450 nm with an ELISA microplate leader. The results of the measured expression reduction rate ([…]) were shown in Table 11, Table 12, FIG. 11 and FIG. 12 below.
# CXCL8 (IL-8) = CXCL8 (IL-8) expression reduction in Gemcitabine-treated THP-1 cells (ELISA); type: cell-based, human; settings: THP-1 cells; for CXCL8 [IL-8] concentration (average ± deviation): sample 100 μg/ml 1 h, then Gemcitabine 2 μg/ml 24 h
# Method: In RPMI (Hyclone, Thermo Scientific) medium to which 10% Fetal Bovine Serum was added, THP-1 cells, a human macrophage family, were suspended at a concentration of 1×10^5 cells/ml, and culture was conducted in a 5% CO2 humidified incubator at 37° C. The cultured THP-1 cells were inoculated into a 12 well plate by 1×10^6 cells/ml and stabilized for 30 minutes. Then, the culture solution was treated with a glycerol derivative compounds of the type shown in Table 6 below for 1 hour and then was treated with Gemcitabine (2 μg/ml) of a cell stimulator, and subsequent further incubation was conducted for 24 hours. Thereafter 1.5 ml of the culture supernatant was collected for each well and centrifuged (at 3000 rpm, 5 minutes) to recover the supernatant. The CXCL8 (IL-8) level in the recovered supernatant was measured according to the manual provided by the human IL-8 ELISA set (BD Biosciences). The day before ELISA was carried out, the IL-8 capture antibody was diluted in phosphate buffered saline, coated on a microwell, and then stored at 4° C. overnight. Each well was washed three times with a buffer solution and then blocked with 2% Bovine Serum Albumin (BSA) for 1 hour at room temperature. After washing with washing buffer solution three times, 100 μl of sample was dispensed into each well and left at room temperature for 2 hours. Detection antibody which was washed 3 times with washing buffer and diluted was dispensed into each well and allowed to react at room temperature for 1 hour and left at room temperature for 1 hour. Thereafter, the secondary HRP conjugated antibody was reacted at room temperature for 30 minutes, washed three times with a washing buffer, and treated with 50 μl of stop solution for each well, and then the optical density was measured at 450 nm with an ELISA microplate leader.
# IL-6 = assay: LPS-induced IL-6 secretion reduction in RAW264.7 cells (ELISA); type: cell-based, mouse; settings: sample 100 μg/ml 1 h, then LPS 1 μg/ml 24 h, Table 2
# Method: In DMEM (Dulbecco Modified Eagle Medium, Hyclone, Thermo Scientific) medium to which 10% Fetal Bovine Serum was added, RAW264.7 cells, a mouse macrophage family, were suspended at a concentration of 1×10^5 cells/ml, and culture was conducted in a 5% CO2 humidified incubator at 37° C. The cultured RAW264.7 cells were inoculated into a 48 well plate by 5×10^4 cells/ml and stabilized for 15 hours. Then, the culture solution was treated with a glycerol derivative compounds of the type shown in Table 2 and 3 below for 1 hour and then was treated with 1 μg/ml of Lipopolysaccaride (LPS) of a cell stimulator, and subsequent further incubation was conducted for 24 hours. Thereafter 0.5 ml of the culture supernatant was collected for each well and centrifuged (at 3000 rpm, 5 minutes) to recover the supernatant. The IL-6 level in the recovered supernatant was measured according to the manual provided by the Mouse IL-6 ELISA set (BD Biosciences). The day before ELISA was carried out, the IL-6 capture antibody was diluted in phosphate buffered saline, coated on a microwell, and then stored at 4° C. overnight. Each well was washed three times with a buffer solution and then blocked with 2% Bovine Serum Albumin (BSA) for 1 hour at room temperature. After washing with buffer solution three times, […] of sample was dispensed into each well and left at room temperature for 2 hours. Detection antibody which was washed 3 times with washing buffer solution and diluted was dispensed into each well and allowed to react at room temperature for 1 hour and left at room temperature for 1 hour. Thereafter, the secondary HRP conjugated antibody was reacted at room temperature for 30 minutes, washed three times with a buffer solution, and treated with 50 μl of stop solution for each well, and then the optical density was measured at 450 nm with an ELISA microplate leader. The results of the IL-6 expression reduction rate (IL-6 concentration) are shown in Table 2, Table 3, FIG. 1 and FIG. 2 below.
# STAT6 = assay: IL-4-induced STAT6 activity, pGL4-STAT6 luciferase reporter in A549 cells; type: cell-based; settings: sample 100 μg/ml 1 h, then IL-4 (2 ng/ml) 20 h, Table 9
# Method: In DMEM (Dulbecco Modified Eagle Medium, Hyclone, Thermo Scientific) medium to which 10% Fetal Bovine Serum was added, A549 cells were subcultured at a concentration of 1×10^5 cells/ml, and culture was conducted in a 5% CO2 humidified incubator at 37° C. The cultured A549 cells were inoculated into a 48 well plate by 1×10^5 cells/ml and stabilized for 18 hours. Thereafter, pGL4-STAT6 reporter vector containing a STAT6 binding promoter portion was mixed with Attractene to induce complex formation at room temperature for 15 minutes. This complex was treated with the cells and then further incubated for 24 hours. Thereafter, the culture solution was treated with a glycerol derivative compounds of the type shown in Table 9 and 10 below for 1 hour, and then IL-4 (2 ng/ml or 10 ng/ml) was further incubated for 20 hours for STAT6 activity. Thereafter, the culture supernatant was removed for each well, and the remaining cells were lysed with a cell lysis buffer, and then cell lysate was recovered. 90 μl of luciferase reagent was mixed with 10 μl of the recovered cell lysate, and the degree of fluorescence was confirmed using a luminometer. The results are shown in Table 9, Table 10, FIG. 9 and FIG. 10 below.
structure (smiles),measurement,setting,value
CCCCC/C=C\C/C=C\CCCCCCCC(=O)OC(COC(=O)CCCCCCCCCCCCCCC)COC(C)OC (stereo not drawn) [EC_A70-1],Number of HL-60 cells migrated through Transwell,HL-60 cells,4047.1 Cell Number
same,STAT3 activity_SEAP expression(%) (average ± deviation),STAT3,259.5 ± 28.4%
same,IL-4 concentration (average ± deviation),IL-4,865.6 ± 127.9 pg/µL
same,CXCL8 [IL-8] concentration (average ± deviation),CXCL8 (IL-8),200.1 ± 1.0 pg/µL
same,IL-6 concentration (average ± deviation),IL-6,0.144 ± 0.028 µg/mL
CCCCC/C=C\C/C=C\CCCCCCCC(=O)OC(COC)COC(=O)CCCCCCCCCCCCCCC (stereo not drawn) [EC_A13],STAT6 activity_Luciferase activity (average ± deviation),STAT6,1150.2 ± 44.9
same,Number of HL-60 cells migrated through Transwell,HL-60 cells,8679.7 Cell Number
same,decrease of STAT3 activity compared to the IL-6 cytokine-treated group,STAT3,about 25%
same,STAT3 activity_SEAP expression(%) (average ± deviation),STAT3,167.2 ± 8.4%
same,CXCL8 [IL-8] concentration (average ± deviation),CXCL8 (IL-8),96.6 ± 0.2 pg/µL
same,IL-6 concentration (average ± deviation),IL-6,0.266 ± 0.024 µg/mL
CCCCC/C=C\C/C=C\CCCCCCCC(=O)OC(COC(=O)CCCC)COC(=O)CCCCCCCCCCCCCCC (stereo not drawn) [EC_A18],STAT6 activity_Luciferase activity (average ± deviation),STAT6,1189.2 ± 174.7
same,Number of HL-60 cells migrated through Transwell,HL-60 cells,9891.6 Cell Number
same,decrease of STAT3 activity compared to the IL-6 cytokine-treated group,STAT3,about 25%
same,STAT3 activity_SEAP expression(%) (average ± deviation),STAT3,166.2 ± 29.6%
same,reduction of CXCL8 (IL-8) expression/secretion,"CXCL8 (IL-8); Gemcitabine-treated, 100 μg/ml",about 20%
same,CXCL8 [IL-8] concentration (average ± deviation),CXCL8 (IL-8),84.0 ± 1.8 pg/µL
same,IL-6 concentration (average ± deviation),IL-6,0.147 ± 0.003 µg/mL
CCCCC/C=C\C/C=C\CCCCCCCC(=O)OC(COC(=O)CCC)COC(=O)CCCCCCCCCCCCCCC (stereo not drawn) [EC_A17],STAT6 activity_Luciferase activity (average ± deviation),STAT6,476.2 ±113.4
same,Number of HL-60 cells migrated through Transwell,HL-60 cells,30692.8 Cell Number
same,decrease of STAT3 activity compared to the IL-6 cytokine-treated group,STAT3,about 25%
same,STAT3 activity_SEAP expression(%) (average ± deviation),STAT3,185.4 ± 19.3%
same,CXCL8 [IL-8] concentration (average ± deviation),CXCL8 (IL-8),110 ± 0.2 pg/µL
same,IL-6 concentration (average ± deviation),IL-6,0.154 ± 0.001 µg/mL

# — patent US12187672B2, “1,2-diacylglycerol compound, preparation method therefor, and immunomodulator containing same as active ingredient” (ENZYCHEM LIFESCIENCES CORPORATION, priority 2018, dated 2025)
